The record followed here is patent US20240208964A1, “PYRIDOPYRIMIDINES AND METHODS OF THEIR USE” (PYRIDOPYRIMIDINES AND METHODS OF THEIR USE, priority 2020, published 2024).

pIC50: −log10 of the molar value.

One may read the pIC50 as −log10 of the IC50, conventionally taken in molar units.

Chain of full-length human PIKFYVE (GST-PIKFYVE) (Q9Y2I7 whole entry S696N/L932S/Q995L/T998S/S1033A/Q1183K, the tested form may be a part): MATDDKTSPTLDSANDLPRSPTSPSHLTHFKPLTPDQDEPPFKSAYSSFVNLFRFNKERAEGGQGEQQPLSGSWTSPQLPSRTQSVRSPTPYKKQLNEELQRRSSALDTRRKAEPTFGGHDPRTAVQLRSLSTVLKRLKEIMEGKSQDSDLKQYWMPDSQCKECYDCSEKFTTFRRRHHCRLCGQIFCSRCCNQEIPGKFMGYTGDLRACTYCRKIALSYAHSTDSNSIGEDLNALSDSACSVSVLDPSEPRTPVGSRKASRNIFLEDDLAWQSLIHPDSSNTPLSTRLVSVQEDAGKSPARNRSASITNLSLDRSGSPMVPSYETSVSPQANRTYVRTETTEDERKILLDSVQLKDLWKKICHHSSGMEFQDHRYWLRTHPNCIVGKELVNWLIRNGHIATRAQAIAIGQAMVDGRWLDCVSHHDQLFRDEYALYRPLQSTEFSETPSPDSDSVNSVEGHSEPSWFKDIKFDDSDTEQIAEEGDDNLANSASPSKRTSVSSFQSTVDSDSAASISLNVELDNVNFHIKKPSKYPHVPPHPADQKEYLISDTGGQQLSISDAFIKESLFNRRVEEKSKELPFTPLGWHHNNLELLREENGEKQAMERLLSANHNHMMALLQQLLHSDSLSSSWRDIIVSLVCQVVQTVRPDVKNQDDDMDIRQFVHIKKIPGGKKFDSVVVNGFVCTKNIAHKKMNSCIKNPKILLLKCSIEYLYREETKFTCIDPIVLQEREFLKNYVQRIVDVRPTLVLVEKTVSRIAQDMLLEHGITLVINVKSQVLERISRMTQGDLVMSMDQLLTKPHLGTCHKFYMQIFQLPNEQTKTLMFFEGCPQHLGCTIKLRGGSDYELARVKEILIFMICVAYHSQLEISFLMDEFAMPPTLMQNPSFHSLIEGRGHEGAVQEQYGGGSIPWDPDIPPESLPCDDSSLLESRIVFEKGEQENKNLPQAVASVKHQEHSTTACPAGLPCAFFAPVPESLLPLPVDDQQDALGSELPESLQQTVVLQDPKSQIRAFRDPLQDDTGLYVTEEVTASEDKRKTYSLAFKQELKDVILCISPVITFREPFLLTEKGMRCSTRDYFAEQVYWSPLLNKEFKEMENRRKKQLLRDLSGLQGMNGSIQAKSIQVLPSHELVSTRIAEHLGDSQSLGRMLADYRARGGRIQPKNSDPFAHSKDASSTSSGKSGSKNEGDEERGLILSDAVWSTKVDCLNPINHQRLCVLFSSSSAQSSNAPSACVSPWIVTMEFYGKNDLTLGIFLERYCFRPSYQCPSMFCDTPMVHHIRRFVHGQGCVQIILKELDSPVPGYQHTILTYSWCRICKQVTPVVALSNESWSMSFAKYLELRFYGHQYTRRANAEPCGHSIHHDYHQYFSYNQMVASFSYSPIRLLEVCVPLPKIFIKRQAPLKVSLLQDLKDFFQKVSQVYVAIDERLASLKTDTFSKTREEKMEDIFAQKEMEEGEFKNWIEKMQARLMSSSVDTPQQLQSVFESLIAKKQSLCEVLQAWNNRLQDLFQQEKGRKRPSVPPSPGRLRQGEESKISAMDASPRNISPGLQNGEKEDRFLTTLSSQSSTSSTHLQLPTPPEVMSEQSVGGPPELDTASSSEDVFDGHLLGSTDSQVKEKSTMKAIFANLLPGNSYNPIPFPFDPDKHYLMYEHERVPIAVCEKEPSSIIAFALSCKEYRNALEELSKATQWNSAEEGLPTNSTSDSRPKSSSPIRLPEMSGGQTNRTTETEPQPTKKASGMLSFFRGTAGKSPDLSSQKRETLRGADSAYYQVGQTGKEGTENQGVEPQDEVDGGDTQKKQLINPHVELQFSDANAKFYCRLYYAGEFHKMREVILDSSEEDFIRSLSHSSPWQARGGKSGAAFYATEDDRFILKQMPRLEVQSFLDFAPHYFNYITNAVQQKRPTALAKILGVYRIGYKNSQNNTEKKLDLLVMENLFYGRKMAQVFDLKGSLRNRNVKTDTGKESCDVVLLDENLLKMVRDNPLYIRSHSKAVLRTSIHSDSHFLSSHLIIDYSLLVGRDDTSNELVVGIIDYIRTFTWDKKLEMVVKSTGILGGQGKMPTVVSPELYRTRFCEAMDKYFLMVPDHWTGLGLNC
Chain of PIKfyve (PIKFYVE-NanoLuc fusion in HEK293 cells) (Q9Y2I7 whole entry, the tested form may be a part): as the sequence (Q9Y2I7 whole entry S696N/L932S/Q995L/T998S/S1033A/Q1183K, the tested form may be a part) above, with N696S, S932L, L995Q, S998T, A1033S, K1183Q counted along it

The first assay addresses PIKfyve (PIKFYVE-NanoLuc fusion in HEK293 cells) (Homo sapiens (Human), UniProt Q9Y2I7). Put plainly: NanoBRET TE Intracellular Kinase Assay, K-8 (Promega) cell-based assay. The settings on record: 2 hours, read-out: hPIKfyve BRET IC50. The procedure:
NanoBRET™ TE Intracellular Kinase Assay, K-8 (Promega) Cell-Based Assay. Intracellular inhibition of PIKfyve was assayed using Promega's NanoBRET™ TE Intracellular Kinase Assay, K-8 according to manufacturer's instructions. A dilution series of test compounds was added for 2 hours to HEK293 cells transfected for a minimum of 20 hours with PIKFYVE-NanoLuc® Fusion Vector (Promega) containing a full-length PIKfyve according to manufacturer's specifications in a 96-well plate. Kinase activity was detected by addition of a NanoBRET™ tracer reagent, which was a proprietary PIKfyve inhibitor appended to a fluorescent probe (BRET, bioluminescence resonance energy transfer). Test compounds were tested at concentrations of 10, 3, 1, 0.3, 0.1, 0.03, 0.01, 0.003 μM. BRET signals were measured by a GloMax®Discover Multimode Microplate Reader (Promega) using 0.3 sec/well integration time, 450BP donor filter and 600LP acceptor filters. Active test compounds that bound PIKfyve and displaced the tracer reduced BRET signal. IC50 values were then calculated by fitting the data to the normalized BRET ratio.
On to `c1ccc(-c2ccn(-c3nc(N4CCOCC4)c4ncccc4n3)n2)cc1` [compound 8, 4-(2-(3-phenyl-1H-pyrazol-1-yl)pyrido[3,2-d]pyrimidin-4-yl)morpholine], for which the pIC50 is 6.00 to 7.00.
For the molecule `c1ccc(-c2ccn(-c3nc(N4CCOCC4)c4ncc(C5CCCCO5)cc4n3)n2)cc1` (stereo not drawn) [compound 18, 4-(2-(3-Phenyl-1H-pyrazol-1-yl)-7-(tetrahydro-2H-pyran-2-yl)pyrido[3,2-d]pyrimidin-4-yl)morpholine], the pIC50 was 6.00 to 7.00.

For a further assay, the system named is PIKFYVE TDP-43 yeast strain. As to the kind of experiment: Propidium iodide viability assay in PIKFYVE TDP-43 yeast strain. The assay is classed as cell-based. The settings on record: Saccharomyces cerevisiae; reduction in PI-positive cells, 24 hours, up to 15 μM. The text has this: Generation of TDP-43 yeast model expressing human PIKfyve. Human PIKFYVE (“entry clone”) was cloned into pAG416GPDccdB (“destination vector”) according to standard Gateway cloning protocols (Invitrogen, Life Technologies). The resulting pAG416GPD-PIKFYVE plasmids were amplified in E. coli and plasmid identity confirmed by restriction digest and Sanger sequencing. Lithium acetate/polyethylene glycol-based transformation was used to introduce the above PIKFYVE plasmid into a BY4741 yeast strain auxotrophic for the ura3 gene and deleted for two transcription factors that regulate the xenobiotic efflux pumps, a major efflux pump, and FAB1, the yeast ortholog of PIKFYVE (MATa, snq2::KILeu2; pdr3::Klura3;pdrl::NATMX; fab1::G418^R, his3;leu2;ura3;met15;LYS2+) (FIG. 2). Transformed yeast were plated on solid agar plates with complete synthetic media lacking uracil (CSM-ura) and containing 2% glucose. Individual colonies harboring the control or PIKFYVE TDP-43 plasmids were recovered. A plasmid containing wild-type TDP-43 under the transcriptional control of the GAL1 promoter and containing the hygromycin-resistance gene as a selectable marker was transformed into the fab1::G418^R pAG416GPD-PIKFYVE yeast strain (FIG. 1). Transformed yeast were plated on CSM-ura containing 2% glucose and 200 μg/mL […] after overnight recovery in media lacking antibiotic. Multiple independent isolates were further evaluated for cytotoxicity and TDP-43 expression levels.
Viability Assay. A control yeast strain with the wild-type yeast FAB1 gene and TDP-43 (“FAB1 TDP-43”, carries empty pAG416 plasmid), and the “PIKFYVE TDP-43” yeast strain, were assessed for toxicity using a propidium iodide viability assay. Both yeast strains were transferred from solid CSM-ura/2% glucose agar plates into 3 mL of liquid CSM-ura/2% glucose media for 6-8 hours at 30° C. with aeration. Yeast cultures were then diluted to an optical density at 600 nm wavelength (OD600) of 0.005 in 3 mL of CSM-ura/2% raffinose and grown overnight at 30° C. with aeration to an OD600 of 0.3-0.8. Log-phase overnight cultures were diluted to OD600 of 0.005 in CSM-ura containing either 2% raffinose or galactose and 150 μL dispensed into each well of a flat bottom 96-well plates. Compounds formulated in 100% dimethyl sulfoxide (DMSO) were serially diluted in DMSO and 1.5 μL diluted compound transferred to the 96-well plates using a multichannel pipet. Wells containing DMSO alone were also evaluated as controls for compound effects. Tested concentrations ranged from 15 μM to 0.11 μM. Cultures were immediately mixed to ensure compound distribution and covered plates incubated at 30° C. for 24 hours in a stationary, humified incubator.
Upon the completion of incubation, cultures were assayed for viability using propidium iodide (PI) to stain for dead/dying cells. A working solution of PI was made where, for each plate, 1 μL of 10 mM PI was added to 10 mL of CSM-ura (raffinose or galactose). The final PI solution (50 μL/well) was dispensed into each well of a new round bottom 96-well plate. The overnight 96-well assay plate was then mixed with a multichannel pipet and 50 μL transferred to the PI-containing plate. This plate was then incubated for 30 minutes at 30° C. in the dark. A benchtop flow cytometer (Miltenyi MACSquant) was then used to assess red fluorescence (B2 channel), forward scatter, and side scatter (with following settings: gentle mix, high flow rate, fast measurement, 10,000 events). Intensity histograms were then gated for “PI-positive” or “PI-negative” using the raffinose and galactose cultures treated with DMSO as controls. The DMSO controls for raffinose or galactose-containing cultures were used to determine the window of increased cell death and this difference set to 100. All compounds were similarly gated and then compared to this maximal window to establish the percent reduction in PI-positive cells.
`Cc1cccc(/C=N/Nc2cc(N3CCOCC3)nc(OCCc3ccc(CN)cc3)n2)c1` had a negative logarithm of the IC50 (pIC50) of 5.95.
In turn, `c1ccc(-c2cccc(-c3cc(N4CCOCC4)n4nc(-c5ccncc5)cc4n3)n2)cc1` gave a negative logarithm of the IC50 (pIC50) of 6.64.
Molecule `Oc1cc(-c2ccccc2)nn1-c1cc(N2CCOCC2)n2nc(-c3ccncc3)nc2n1` had a pIC50 of 6.16.
On the same count and under the same terms, then `Oc1cc(C2CCOCC2)nn1-c1cc(N2CCOCC2)n2nc(-c3ccncc3)cc2n1`, with 5.04.
On the same count and under the same terms, the result for `c1ccc(-c2ccnc(-c3cc(N4CCOCC4)nc(OCc4ccncc4)n3)n2)cc1` reads 5.84; that for `c1ccc(N2CCc3c(OCc4cccnc4)nc(N4CCOCC4)nc32)cc1`, 5.57.
On the same count and under the same terms, the result for `Fc1cccc(-c2ccnn2-c2nc(N3CCOCC3)c3ncccc3n2)c1` reads 5.24; that for `Cc1cccc(/C=N/Nc2nc(N3CCOCC3)c3nc(-c4ccncc4)n(C)c3n2)c1` [drawing 308], 5.33; that for `Cc1cccc(/C=N/Nc2nc(N3CCOCC3)c3ncccc3n2)c1` [drawing 311], 5.09.

Another assay deals with full-length human PIKFYVE (GST-PIKFYVE) (Homo sapiens (Human), UniProt Q9Y2I7, L932S/Q1183K/Q995L/S1033A/S696N/T998S). As to the kind of experiment: PIKfyve biochemical assay (ADP-Glo Kinase assay, Carna Biosciences). To be noted: ADP-Glo, full-length human PIKFYVE; read-out: hPIKfyve IC50. The text has this:
PIKfyve Biochemical Assay. The biochemical PIKFyve inhibition assays were run by Carna Biosciences according to proprietary methodology based on the Promega ADP-Glo™ Kinase assay. A full-length human PIKFYVE [1-2098(end) amino acids and S696N, L932S, Q995L, T998S, S1033A and Q1183K of the protein having the sequence set forth in NCBI Reference Sequence No. NP_055855.2] was expressed as N-terminal GST-fusion protein (265 kDa) using baculovirus expression system. GST-PIKFYVE was purified by using glutathione sepharose chromatography and used in an ADP-Glo™ Kinase assay (Promega). Reactions were set up by adding the test compound solution, substrate solution, ATP solution and kinase solution, each at 4× final concentrations. Reactions were prepared with assay buffer (50 mM MOPS, 1 mM DTT, pH7.2), mixed, and incubated in black 384 well polystyrene plates for 1 hour at room temperature. ADP-Glo™ reagent was then added for 40 minutes, followed by kinase detection reagent for an additional 40 minutes. The kinase activity was evaluated by detecting relative light units on a luminescence plate reader. Samples were run in duplicate from 10 μM to 3 nM. […] IC50 values were calculated from concentration vs % inhibition curves by fitting to a four-parameter logistic curve.
The biochemical PIKFyve inhibition assays were run by Carna Biosciences according to proprietary methodology based on the Promega ADP-Glo™ Kinase assay. A full-length human PIKFYVE [1-2098(end) amino acids and S696N, L932S, Q995L, T998S, S1033A and Q1183K of accession number NP_055855.2] was expressed as N-terminal GST-fusion protein (265 kDa) using baculovirus expression system. GST-PIKFYVE was purified by using glutathione sepharose chromatography and used in an ADP-Glo™ Kinase assay (Promega).
Reactions were set up by adding the test compound solution, substrate solution, ATP solution and kinase solution, each at 4× final concentrations. Reactions were prepared with assay buffer (50 mM MOPS, 1 mM DTT, pH7.2), mixed, and incubated in black 384 well polystyrene plates for 1 hour at room temperature. ADP-Glo™ reagent was then added for 40 minutes, followed by kinase detection reagent for an additional 40 minutes. The kinase activity was evaluated by detecting relative light units on a luminescence plate reader. Samples were run in duplicate from 10 uM to 3 nM. […] IC50 values were calculated from concentration vs % inhibition curves by fitting to a four-parameter logistic curve.
(ADP-Glo turns the ADP formed in a reaction into a luminescent signal.)
Regarding `c1ccc(-c2ccn(-c3nc(N4CCOCC4)c4ncccc4n3)n2)cc1` [compound 8, 4-(2-(3-phenyl-1H-pyrazol-1-yl)pyrido[3,2-d]pyrimidin-4-yl)morpholine], the negative-log IC50 (pIC50) is 7.00 to 8.00.
For the molecule `c1ccc(-c2ccn(-c3nc(N4CCOCC4)c4ncc(C5CCCCO5)cc4n3)n2)cc1` (stereo not drawn) [compound 18, 4-(2-(3-Phenyl-1H-pyrazol-1-yl)-7-(tetrahydro-2H-pyran-2-yl)pyrido[3,2-d]pyrimidin-4-yl)morpholine], the negative logarithm of the IC50 (pIC50) is 7.00 to 8.00.
With `c1cnc2c(N3CCOCC3)nc(-n3ccc(C4CCOCC4)n3)nc2c1` [compound 45, 4-(2-(3-(tetrahydro-2H-pyran-4-yl)-1H-pyrazol-1-yl)pyrido[3,2-d]pyrimidin-4-yl)morpholine], the pIC50 is 5.00 to 6.00.
In the case of `c1ccc(-c2ccn(-c3nc(N4CCOCC4)c4cnccc4n3)n2)cc1` [compound 46, 4-(2-(3-phenyl-1H-pyrazol-1-yl)pyrido[4,3-d]pyrimidin-4-yl)morpholine], the negative logarithm of the IC50 (pIC50) was 5.00 to 6.00.
For the molecule `c1cnc2c(N3CCOCC3)nc(-n3ccc(C4CCCNC4)n3)nc2c1` (stereo not drawn) [compound 48], the pIC50 is 5.00 to 6.00.
On the same count and under the same terms, the result for `c1cnc2c(N3CCOCC3)nc(-c3ccnc(N4CCOCC4)n3)nc2c1` [compound 51, 4-[4-(4-morpholinopyrido[3,2-d]pyrimidin-2-yl)pyrimidin-2-yl]morpholine] reads 5.00 to 6.00.
In the case of `CC(C)(C)OC(=O)N1CCN(c2nccc(-c3nc(N4CCOCC4)c4ncccc4n3)n2)CC1` [compound 55, tert-butyl 4-[4-(4-morpholinopyrido[3,2-d]pyrimidin-2-yl)pyrimidin-2-yl]piperazine-1-carboxylate], the pIC50 is 5.00 to 6.00.
Regarding `c1cncc(Cc2nc(N3CCOCC3)c3ncccc3n2)c1` [compound 72], the pIC50 is 7.00 to 8.00.
As for `O=C(c1cccnc1)c1nc(N2CCOCC2)c2ncccc2n1` [compound 73], the negative logarithm of the IC50 (pIC50) was 6.00 to 7.00.
Still for that read-out and setting: the result for `c1coc(-c2nc(N3CCOCC3)c3ncccc3n2)c1` [compound 74] reads 6.00 to 7.00; that for `c1cncc(Oc2nc(N3CCOCC3)c3ncccc3n2)c1` [compound 75], 7.00 to 8.00.
As for `Cc1cccc(CCNc2nc(N3CCOCC3)c3ncc(C(O)c4cccnc4)cc3n2)c1` (stereo not drawn) [compound 76], the negative-log IC50 (pIC50) was 6.00 to 7.00.
With `Cc1cccc(CCNc2nc(N3CCOCC3)c3ncc(C(=O)c4cccnc4)cc3n2)c1` [compound 77], the pIC50 is 6.00 to 7.00.
Same read-out and setting: the result for `Cc1cccc(CCNc2nc(N3CCOCC3)c3ncc(Cc4cccnc4)cc3n2)c1` [compound 78] reads 6.00 to 7.00; that for `Clc1nc(N2CCOCC2)c2ncc(Cc3cccnc3)cc2n1` [compound 82], 5.00 to 6.00.
As for `Fc1cccc(Nc2nc(N3CCOCC3)c3ncc(Cc4cccnc4)cc3n2)c1` [compound 83], the pIC50 is 5.00 to 6.00.
Still for that read-out and setting: then `c1ccc(Oc2nc(N3CCOCC3)c3ncc(Cc4cccnc4)cc3n2)cc1` [compound 84], with 5.00 to 6.00.
As to `c1ccc(-c2nccc(-c3nc(N4CCOCC4)c4ncc(Cc5cccnc5)cc4n3)n2)cc1` [compound 85], the pIC50 is 6.00 to 7.00.
`Fc1cccc(-c2nccc(-c3nc(N4CCOCC4)c4ncc(Cc5cccnc5)cc4n3)n2)c1` [compound 86]: the negative-log IC50 (pIC50) is 6.00 to 7.00.
Still for that read-out and setting: then `c1ccc(Nc2nc(N3CCOCC3)c3ncc(C4CCCO4)cc3n2)cc1` (stereo not drawn) [compound 87], with 6.00 to 7.00.
`c1ccc(Oc2nc(N3CCOCC3)c3ncc(C4CCCO4)cc3n2)cc1` (stereo not drawn) [compound 88]: the pIC50 was 5.00 to 6.00.

Staying with this assay, now noted: values plotted in FIG. 7; read-out: PIKFYVE Biochemistry (IC50).
As to `Fc1cccc(-c2ccnn2-c2nc(N3CCOCC3)c3ncccc3n2)c1`, the pIC50 is less than 5.00.
